Measured values reported in patent US5667764A, “Compounds, compositions and methods for binding bio-affecting substances to surface membranes of bio-particles” (Zynaxis, Inc., priority 1992, dated 1997).

System: red blood cell ghosts (plasma membrane)
Experiment: Membrane retention coefficient (MRC) in red blood cell ghosts
Format: binding
Conditions: for Δ MRC: change in MRC to 24 hr
Description: Determination of Membrane Retention Coefficient
The membrane retention coefficient (MRC) provides information regarding how well a given compound is retained in the plasma membrane of a cell and is determined as described below.
Generation of red blood cell ghosts for use as a model membrane is achieved by centrifuging whole blood at 300×g for 15 minutes, removal of the plasma and resuspension of the cell pellet in 0.83% (w/v) ammonium chloride. The ghosts are pelleted from the ammonium chloride by centrifuging at 10,000×g for 10 minutes. This ammonium chloride washing procedure is repeated a minimum of five times to insure that complete release of hemoglobin from the cells has occured. The ghosts are labeled with the compound in question at a concentration allowing for detection of the labeled ghosts by instrumental analysis or fluorescent microscopic methods, and at a concentration similar to those that would be used to label cells for a specific application as described above. For the determinations hereinbelow stock solutions of the compounds in question were prepared in ethanol at a molar concentration of 2×10^-3, and working dilutions of the compounds were prepared in iso-osmotic sucrose (52 g/500 ml distilled water). After incubation of the ghosts at an approximate concentration of 1×10^9 ghosts/ml in the working dilutions of the compounds for 10 minutes, the samples were centrifuged at 10,000×g to pellet the ghosts and the staining solution was aspirated from the samples. The labeled ghosts were resuspended in 1 ml of phosphate buffered saline solution containing 10% fetal bovine serum (PBS-FBS). Triplicate 20 ul aliquots were removed from each sample for the determination of the amount of total compound present. The samples were centrifuged as described above and triplicate 20 ul aliquots were removed from the supernatant for quantitative determination of amount of unbound compound present.
After sampling, the supernatant was aspirated and the red cell ghost pellet was resuspended in 1.0 ml of the PBS-FBS, which was once again sampled as described above. This procedure was repeated at least six times, allowing for detection of rapidly released compounds and was monitored after times equal to or greater than 24 hours to allow for the detection of more slowly released compounds. For the determination of the amount of compound present in each sample, the 20 ul aliquots were extracted into 3.0 ml of n-butanol by shaking. The samples were centrifuged at 3000×g to remove membrane debris and the butanol fractions were assayed for compound concentration. Fluorescent compounds are assayed in this manner using peak excitation and emission wave lengths for the particular compounds being assayed to determine the fluorescence units for each sample.
The determination of the amount of compound present in each sample as described above allows for the calculation of the MRC for each washing or fixed time point. The value is obtained by the following formula: […]
wherein CT represents the amount of compound present (in units determined by the method used to assay the compound) in the total sample and CS represents the amount of compound present in the supernatant sample for that particular time point. The comparison of the MRC values defines criteria for identification of the compounds of this invention, these criteria being: 1) the MRC values determined for each washing steps should have a value of at least about 90 and 2) the percent difference between MRC values over at least a 24 hour time period should be less than about 10%. [drawing 14]
The data provided in Table I below are the results from one experiment and serve as an example of the MRC determination. […]

Row | SMILES | Membrane retention coefficient (MRC), 24 HR | Δ MRC [%] | Membrane retention coefficient (MRC), WASH 1 | Membrane retention coefficient (MRC), WASH 2 | Membrane retention coefficient (MRC), WASH 3 | Membrane retention coefficient (MRC), WASH 4 | Membrane retention coefficient (MRC), WASH 5 | Membrane retention coefficient (MRC), WASH 6
1 | CCCCCCCCCCCCCCCCCCN1C(=CC=Cc2oc3ccccc3[n+]2CCCCC)Oc2ccccc21 [J] | 87.24 | 10.57 | 94.07 | 96.99 | 98.66 | 98.39 | 98.82 | 97.56
2 | CCCCCCCCCCCCCCN1C(=CC=CC2=[N+](CCCCCCCCCCCCCC)c3ccccc3C2(C)C)C(C)(C)c2ccccc21 [C] | 93.90 | 5.26 | 94.85 | 97.24 | 98.40 | 98.64 | 98.43 | 99.12
3 | CCCCCCCCCCCCCCN1C(=CC=Cc2oc3ccccc3[n+]2CCC)Oc2ccccc21 [D] | 18.84 | 75.82 | 50.40 | 61.20 | 64.45 | 65.85 | 70.62 | 77.92
4 | CCCCCCCCCCCCCCCCCCCCN1C(=CC=Cc2oc3ccccc3[n+]2CCC)Oc2ccccc21 [Compound H] | 90.10 | 8.43 | 91.70 | 97.22 | 97.97 | 98.24 | 98.09 | 98.40
5 | CCC[n+]1c(C=CC=C2Oc3ccccc3N2CCC(C)CCCC(C)CCCC(C)CCCC(C)C)oc2ccccc21 (stereo not drawn) [F] | 36.77 | 61.64 | 88.82 | 93.94 | 95.15 | 95.26 | 94.51 | 96.64
6 | CCCCCCCCCCCCCCCCCCN1C(=CC=Cc2oc3ccccc3[n+]2CCC)Oc2ccccc21 [E] | 53.81 | 44.62 | 90.69 | 94.74 | 96.28 | 96.74 | 96.41 | 97.17
7 | CCCCCCCCCCCCCCCCCCCCCCCCCC[n+]1c2cc(N(C)C)ccc2cc2ccc(N(C)C)cc21 [N] | 98.27 | 0.61 | 95.97 | 97.51 | 98.32 | 98.48 | 98.71 | 98.88
8 | CCCCCCCCCCCCCCCCCCCCCCN1C(=CC=Cc2oc3ccccc3[n+]2CCC)Oc2ccccc21 [K] | 97.90 | 1.56 | 97.35 | 98.47 | 98.16 | 98.99 | 99.01 | 99.46
9 | CCCCCCCCCCCCCCCCCCCCCCN1C(=CC=Cc2oc3ccccc3[n+]2CCC)Oc2ccccc21 [G] | 96.90 | 1.46 | 94.42 | 96.96 | 98.03 | 97.93 | 97.92 | 98.34
